Measurements taken from US12319655B2, “RAF kinase inhibitors and methods of use thereof” (Deciphera Pharmaceuticals, LLC, priority 2021, dated 2025).

Legend:
[1] = tested on: WM3928 cells; assay: WM3928 Cell Proliferation Assay (2); type: cell-based
Experimental: WM3928 Cell Proliferation Assay (2)
WM3928 cells (#WM3928-01-0001) are obtained from Rockland Immunochemicals Inc (Gilbertsville, PA). Briefly, cells were grown in MCDB 153 medium (Sigma, #M7403, St. Louis, MO) supplemented with 20% Leibovitz's L-15 (ThermoFisher #11415-064, Waltham, MA), 2% heat inactivated fetal bovine serum (ThermoFisher, #A3840001, Waltham, MA), 5 μg/mL Insulin (Bovine Pancreas) (Sigma, #10516, St. Louis, MO), 1.68 mM Calcium Chloride (Sigma, #C-34006, St. Louis, MO) and 1% Penicillin/Streptomycin/L-Glutamine (ThermoFisher #10378016, Waltham, MA) at 37° C., 5% CO2, and 95% humidity. Cells are expanded until reaching 70-95% confluency at which point they are sub-cultured or harvested for assay use. Using the Beckman Coulter Echo 650, a serial dilution of test compound is dispensed into a 384-well black clear bottom plate in triplicate. Seven hundred fifty cells are added per well in 50 μL complete growth medium in the 384-well plate. Plates are incubated for 67-72 hours at 37° C., 5% CO2, and 95% humidity. At the end of the incubation, 10 μL of a 440 μM solution of resazurin (Sigma, #199303, St. Louis, MO) in PBS is added to each well of the plate and plates are incubated for an additional 3-6 hours at 37° C., 5% CO2, and 95% humidity. Plates are read on a Synergy2 or equivalent reader (Biotek, Winooski VT) using an excitation of 540 nm and an emission of 600 nm. Data is analyzed using Prism software (GraphPad, San Diego, CA) to calculate IC50 values.

[2] = tested on: Miapaca-2 cells; assay: MiaPaca-2 Combination Cell Proliferation Assay (2) with cobimetinib; type: cell-based; details: MiaPaca-2 cell proliferation, read-out: MiaPaca-2 Combo (2) IC50
Experimental: MiaPaca-2 Combination Cell Proliferation Assay (2)
Miapaca-2 cells (catalog #CRL-1420) are obtained from the American Type Culture Collect (ATCC, Manassas, VA). Briefly, cells were grown in DMEM supplemented with 10% characterized fetal bovine serum (Invitrogen, Carlsbad, CA), 2.5% New Zealand sourced horse serum and 1% Penicillin/Streptomycin/L-Glutamine at 37° C., 5% CO2, and 95% humidity. Cells are expanded until reaching 70-95% confluency at which point they are subcultured or harvested for assay use. Using the Beckman Coulter Echo 650, a threefold, 8-point serial dilution of compound was spotted column wise into a 384 well black, clear bottom, tissue culture treated plate. Likewise, a threefold, 8-point serial dilution of cobimetinib was spotted row wise into the 384 well black, clear bottom plate containing compound. DMSO concentration was constant across all wells at 0.4%. Seven hundred fifty cells are added per well in 50 μL complete growth medium in each 384-well plate. Plates are incubated for 67-72 hours at 37° C., 5% CO2, and 95% humidity. At the end of the incubation, 10 μL of a 440 μM solution of resazurin (Sigma, St. Louis, MO) in PBS is added to each well of the plate and plates are incubated for an additional 4-6 hours at 37° C., 5% CO2, and 95% humidity. Plates are read on a Synergy2 or equivalent reader (Biotek, Winooski VT) using an excitation of 540 nm and an emission of 600 nm. Drug synergy was assessed via BLISS analysis in the Combenefit software (Cancer Research UK Cambridge Institute, Cambridge, UK). Data is analyzed using Prism software (Graphpad, San Diego, CA) to calculate IC50 values. Shifts in test compound IC50 values are reported from top-constrained combination therapy curves.

IC50 [2] [nM] | SMILES | IC50 [1] [nM]
– | CNC(=O)c1cc(-c2cc(-c3cc(NC(=O)c4ccnc(C(C)(C)F)c4)ccc3Cl)ccn2)ccn1 [Example 485] | ≤ 100
1000 to 10000 | Cc1ccc(NC(=O)c2ccnc(C(C)(C)F)c2)cc1-c1cnnc(-c2ccnc(C(N)=O)c2)c1 [Example 486] | 100 to 500
100 to 500 | CNC(=O)c1cc(-c2cc(-c3cc(NC(=O)c4ccnc(C5(F)CC5)c4)ccc3C)ccn2)ccn1 [Example 487] | ≤ 100
– | Cc1ccc(NC(=O)c2ccnc(C(C)(C)F)c2)cc1-c1cc(-c2ccnc(C(N)=O)c2)ncn1 [Example 488] | 100 to 500
100 to 500 | [2H]C([2H])([2H])NC(=O)c1cc(-c2cc(-c3cc(NC(=O)c4ccnc(C(C)(C)F)c4)ccc3C)ccn2)ccn1 [Example 489] | ≤ 100
– | Cc1ccc(NC(=O)c2ccnc(C(C)(C)F)c2)cc1-c1cc(-c2ccnc(C(N)=O)c2)ncc1F [Example 490] | 100 to 500
– | CC(C)(F)c1cc(C(=O)Nc2ccc(F)c(-c3ccnc(-c4ccnc(C(N)=O)c4)c3)c2)ccn1 [Example 491] | 500 to 1000
– | CNC(=O)c1cc(-c2cc(-c3cc(NC(=O)c4cnnc(C(C)(F)F)c4)ccc3C)ccn2)ccn1 [Example 492] | 100 to 500
100 to 500 | [2H]C([2H])([2H])NC(=O)c1cc(-c2cc(-c3cc(NC(=O)c4ccnc(C(C)(C)F)c4)ccc3C)cc(C)n2)ccn1 [Example 493] | ≤ 100
– | CNC(=O)c1cc(-c2cc(-c3cc(NC(=O)c4ccnc(C(C)(C)F)n4)ccc3C)ccn2)ccn1 [Example 494] | 500 to 1000
– | CNC(=O)c1cc(-c2cc(-c3cc(NC(=O)c4cnnc(C(C)(C)F)c4)ccc3C)ccn2)ccn1 [Example 495] | ≤ 100
– | CNC(=O)c1cc(-c2cc(-c3cc(NC(=O)c4ccnc(C5(F)CC5)c4)ccc3C)cc(C)n2)ccn1 [Example 496] | ≤ 100
– | CNC(=O)c1cc(-c2cc(-c3cc(NC(=O)c4ccnc(C(C)(C)F)c4)c(F)cc3C)ccn2)ccn1 [Example 497] | 100 to 500
– | [2H]C([2H])([2H])NC(=O)c1cc(-c2cc(-c3cc(NC(=O)c4ccnc(C5(F)CC5)c4)ccc3C)cc(C)n2)ccn1 [Example 498] | ≤ 100
– | CNC(=O)c1cc(-c2cc(-c3cc(NC(=O)c4ccnc(C(C)(C)F)c4)ncc3C)ccn2)ccn1 [Example 499] | 100 to 500
– | Cc1ccc(NC(=O)c2cn(C)nc2C(F)(F)F)cc1-c1cncc(-c2ccnc(NC(=O)C3CC3)c2)c1 [Example 500] | 500 to 1000
– | Cc1ccc(NC(=O)c2ccc(C(F)(F)F)cc2)cc1-c1ccnc(-c2ccnc(NC(=O)C3CC3)c2)c1 [Example 501] | 100 to 500
– | Cc1ccc(NC(=O)c2cccc(C(F)(F)F)c2)cc1-c1ccnc(-c2ccnc(NC(=O)C3CC3)c2)c1 [Example 502] | ≤ 100
– | Cc1ccc(NC(=O)c2cc(C(F)(F)F)ccc2F)cc1-c1ccnc(-c2ccnc(NC(=O)C3CC3)c2)c1 [Example 503] | ≤ 100
